Experimental data as given in patent US8822467B2 (Ligand Pharmaceuticals Inc., priority 2009, dated 2014).

Target: T1, human CRTH2 (Homo sapiens, UniProt Q9Y5Y4)
T1 construct: expressed in transfected cells
T1 sequence (Q9Y5Y4 1-395): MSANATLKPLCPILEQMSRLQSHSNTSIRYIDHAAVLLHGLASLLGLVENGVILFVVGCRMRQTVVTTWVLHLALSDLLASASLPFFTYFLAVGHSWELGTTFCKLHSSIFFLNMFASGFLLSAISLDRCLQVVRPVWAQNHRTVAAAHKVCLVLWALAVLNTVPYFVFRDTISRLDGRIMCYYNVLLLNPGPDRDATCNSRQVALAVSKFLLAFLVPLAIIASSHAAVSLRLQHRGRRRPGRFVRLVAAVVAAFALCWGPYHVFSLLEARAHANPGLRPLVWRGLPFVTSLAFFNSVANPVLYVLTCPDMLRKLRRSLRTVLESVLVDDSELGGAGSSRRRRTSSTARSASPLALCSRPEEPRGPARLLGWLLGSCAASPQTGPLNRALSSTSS
Assay: [35S]GTPγS binding assay (SPA) on membranes from CHO-K1 cells stably expressing human CRTH2, stimulated with 60 nM DHK-PGD2
Type: biochemical
Conditions: membranes of CHO-K1 cells expressing human CRTH2; 60 nM DHK-PGD2; Table 1; read-out: CRTH2 hGTPγS IC50
Protocol: [^35S]GTPγS Binding Assay
SPA [^35S]G-TPγS binding was performed on membranes from CHO-K1 cells stably expressing human CRTH2. To a white, clear-bottomed 384-well plate, 4 μg membrane protein was incubated in the binding buffer (20 mM HEPES, pH 7.4, 10 mM MgCl2, 300 mM NaCl, 0.2% BSA) with 60 nM DHK-PGD2, 500 pM [^35S]GTPγS, 10 μM GDP, and 100 μg wheat germ agglutinin-coupled SPA beads (GE Healthcare) with and without increasing concentrations of compounds. The final assay volume was 40 μL and contained 1% DMSO. Samples were incubated for 2 h at ambient temperature. Plates were centrifuged 5 min at 1500 rpm. Plates were read after an additional 4 h using the Trilux 1450 Microbeta (PerkinElmer) with a 30 sec/well reading time.

Row | IC50 | Compound
1 | 0.7 nM | CN(Cc1ccc(OCC(=O)O)c(-c2cc(F)cc(C#N)c2)c1)S(=O)(=O)c1ccc(Cl)c(Cl)c1 [Example 38, 2-(3-cyano-5-fluorophenyl)-4-((3,4-dichloro-N-methylphenylsulfonamido)methyl)phenoxyacetic acid]
2 | 2.1 nM | COc1cc(F)cc(-c2cc(CN(C)S(=O)(=O)c3ccc(F)c(F)c3)ccc2OCC(=O)O)c1 [Example 46, 2-(3-fluoro-5-methoxyphenyl)-4-((3,4-difluoro-N-methylphenylsulfonamido)methyl)phenoxyacetic acid]

Same assay, conditions: potency class symbols; Table 2; read-out: CRTH2 hGTPγS IC50

Row | IC50 | Compound
3 | 1000 to 10000 nM | CN(Cc1ccc(OCC(=O)O)c(-c2ccc3cc[nH]c3c2)c1)S(=O)(=O)c1ccc(F)cc1 [Example 183, 2-(1H-indol-6-yl)-4-((4-fluoro-N-methylphenylsulfonamido)methyl)phenoxyacetic acid]
4 | 100 to 1000 nM | COc1ccc(S(=O)(=O)N(C)Cc2ccc(OCC(=O)O)c(-c3cccc(C(F)(F)F)c3)c2)cc1 [Example 121, 2-(3-trifluoromethylphenyl)-4-((4-methoxy-N-methylphenylsulfonamido)methyl)phenoxyacetic acid]
5 | 100 to 1000 nM | CC(c1ccc(OCC(=O)O)c(-c2cccc(C(F)(F)F)c2)c1)N(C)S(=O)(=O)c1ccc(F)cc1 (stereo not shown) [Example 22, 2-(2-(3-trifluoromethylphenyl)-4-(1-(4-fluoro-N-methylphenylsulfonamido)ethyl)phenoxy)acetic acid]
6 | < 100 nM | CN(Cc1ccc(OCC(=O)O)c(-c2cccc(S(C)(=O)=O)c2)c1)S(=O)(=O)c1ccc(F)cc1 [Example 60, 2-(3-methylsulfonylphenyl)-4-((4-fluoro-N-methylphenylsulfonamido)methyl)phenoxyacetic acid]
7 | < 100 nM | CCS(=O)(=O)c1cccc(-c2cc(CN(C)S(=O)(=O)c3ccc(F)c(F)c3)ccc2OCC(=O)O)c1 [Example 58, 2-(3-ethylsulfonylphenyl)-4-((3,4-difluoro-N-methylphenylsulfonamido)methyl)phenoxyacetic acid]
8 | < 100 nM | CC(c1ccc(OCC(=O)O)c(-c2cccc(C(F)(F)F)c2)c1)N(C)S(=O)(=O)c1ccc(F)c(F)c1 (stereo not shown) [Example 93, 2-(3-trifluoromethylphenyl)-4-(1-(3,4-difluoro-N-methylphenylsulfonamido)ethyl)phenoxyacetic acid]
9 | < 100 nM | CN(Cc1ccc(OCC(=O)O)c(-c2cccc(S(N)(=O)=O)c2)c1)S(=O)(=O)c1ccc(F)cc1 [Example 52, 2-(3-aminosulfonylphenyl)-4-((4-fluoro-N-methylphenylsulfonamido)methyl)phenoxyacetic acid]
10 | 100 to 1000 nM | COC(=O)c1cccc(-c2cc(CN(C)S(=O)(=O)c3ccc(F)cc3)ccc2OCC(=O)O)c1 [Example 141, 2-(3-methoxycarbonylphenyl)-4-((4-fluoro-N-methylphenylsulfonamido)methyl)phenoxyacetic acid]
11 | 100 to 1000 nM | COc1ccccc1S(=O)(=O)N(C)Cc1ccc(OCC(=O)O)c(-c2cccc(C(F)(F)F)c2)c1 [Example 146, 2-(3-trifluoromethylphenyl)-4-((2-methoxy-N-methylphenylsulfonamido)methyl)phenoxyacetic acid]
12 | < 100 nM | CN(Cc1ccc(OCC(=O)O)c(-c2cc(F)cc(C#N)c2)c1)S(=O)(=O)c1ccc(Cl)c(Cl)c1 [Example 38, 2-(3-cyano-5-fluorophenyl)-4-((3,4-dichloro-N-methylphenylsulfonamido)methyl)phenoxyacetic acid]
13 | 1000 to 10000 nM | CN(C)S(=O)(=O)N(C)Cc1ccc(OCC(=O)O)c(-c2cccc(C(F)(F)F)c2)c1 [Example 182, 2-(3-trifluoromethylphenyl)-4-((N-methyldimethylaminosulfonamido)methyl)phenoxy acetic acid]
14 | 100 to 1000 nM | C[C@H](Oc1ccc(CN(C)S(=O)(=O)c2ccc(F)cc2)cc1-c1cccc(C(F)(F)F)c1)C(=O)O [Example 36, (S)-2-(2-(3-trifluoromethylphenyl)-4-((4-fluoro-N-methylphenylsulfonamido)methyl)phenoxy)propanoic acid]
15 | < 100 nM | COc1cc(F)cc(-c2cc(CN(C)S(=O)(=O)c3ccc(F)c(F)c3)ccc2OCC(=O)O)c1 [Example 46, 2-(3-fluoro-5-methoxyphenyl)-4-((3,4-difluoro-N-methylphenylsulfonamido)methyl)phenoxyacetic acid]
16 | 100 to 1000 nM | CN(Cc1ccc(OCC(=O)O)c(-c2ccc(F)c(F)c2)c1)S(=O)(=O)c1ccc(F)cc1 [Example 144, 2-(3,4-difluorophenyl)-4-((4-fluoro-N-methylphenylsulfonamido)methyl)phenoxyacetic acid]
